We go through two compounds from patent US20100189797A1, “ORAL ANTIDEPRESSANT FORMULATION” (priority 2002, published 2010).

The test system of one data set is volunteers. Briefly: Informal tests on volunteers: oral ASA dose with oral antidepressant. Type of data set: in vivo, human. As to conditions: oral ASA less than 50 mg with an antidepressant. On the procedure:
From said tests and informal tests made on volunteers, in which after (just after, less than 5 minutes after) and prior oral administration of an antidepressant, a dose of ASA was orally administered, it appears that the oral dose of ASA had to be lowered to less than 50 mg, especially between 5 and 50 mg.
From this test, it seems that the antidepressant action could already be achieved in less than 7 days, and even in less than 3 to 4 days, although when not using low dose of ASA, the antidepressant action is for example of at least 4 weeks for SSRI.

For the next data set, the system named is stressed rats. Briefly: Tests made on rats: activity level of stressed rats. As to conditions: 5 mg fluoxetine per kg and/or 50 mg ASA per kg, unstressed control 30, stressed 2. Type of data set: in vivo. On the procedure: Four groups of rats have been stressed. One group of rats remain unstressed so as to serve as control.
After being stressed, the rats of the first group received a dose of 50 mg ASA per kg. The second group of rats received no treatment. The third group of rats received 5 mg fluoxetine per kg, and the fourth group of rats received simultaneously 5 mg fluoxetine+50 mg ASA per kg.
The treatment was continued during 3 weeks.
In said test, the doses of ASA and fluoxetine have been adapted for rats.

Another data set deals with SSRI responding human. In words: Higher dose of ASA administered to SSRI responding human. The class given is in vivo. As to conditions: ASA dose of 100 mg.

For `CC(=O)Oc1ccccc1C(=O)O` [ASA, acetyl salicylic acid], in the data set on volunteers, the bleeding entry is on record as “no bleeding was observed”. Besides, in the data set with stressed rats, the “activity after 1 week of treatment” value is “no increase at all of the activity” and the “activity after three weeks of treatment” value is “no improvement of activity”. Also, in the data set on SSRI responding human, the “influence on the time of onset of antidepressant action” value is recorded as “no influence or even to have a negative influence”.

On to `CNCCC(Oc1ccc(C(F)(F)F)cc1)c1ccccc1` (racemic) [fluoxetine, (±)-N-methyl-3-phenyl-3-[(α-α-α-trifluoro-p-tolyl)oxy] propylamine], for which, in the data set on stressed rats, the “activity after 1 week of treatment” value is recorded as “no increase at all of the activity” and the “activity after three weeks of treatment” value was “about 25”.
